Results published in patent US12398108B2, “Compounds, compositions, and methods for treating diseases” (Drexel University, priority 2017, dated 2025).

What was measured:
[1] = administration to a subject in pain; type: in vivo
Method: 1-(2,2-Dimethyl-3-(4-(trifluoromethyl)phenoxy)propyl)-3-(pyrimidin-5-yl)guanidine is administered to a subject in pain. The subject's pain is alleviated.

[2] = tested on: breast cancer; experiment: administration to a subject who has breast cancer; type: in vivo
Method: 1-(2,2-Dimethyl-3-(4-(trifluoromethyl)phenoxy)propyl)-3-(pyrimidin-5-yl)guanidine is administered to a subject who has breast cancer. The tumor growth is inhibited and the tumor size is reduced.

[3] = tested on: Human Androgen Receptor; experiment: Indigo Biosciences Human Androgen Receptor Reporter Assay System; type: cell-based
Method: The compound's activity was also measured for its ability to inhibit androgen receptor reporter activity. The assay that was used was Indigo Biosciences Human Androgen Receptor Reporter Assay System. […] Based upon these activities, the compounds are expected to have anti-tumor effects.

[4] = target: Sigma1 receptor (Homo sapiens, UniProt Q99720); experiment: binding to Sigma1 receptor
Sigma1 receptor, sequence (Q99720 whole entry, species assumed): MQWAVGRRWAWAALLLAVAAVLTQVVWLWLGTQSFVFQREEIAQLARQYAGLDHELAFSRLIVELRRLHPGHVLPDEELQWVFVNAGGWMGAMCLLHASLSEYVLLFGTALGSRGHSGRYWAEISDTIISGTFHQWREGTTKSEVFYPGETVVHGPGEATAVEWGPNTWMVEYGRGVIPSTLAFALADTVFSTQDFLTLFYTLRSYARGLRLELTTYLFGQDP

CC(C)(CNC(=N)Nc1cncnc1)COc1ccc(C(F)(F)F)cc1 [1-(2,2-Dimethyl-3-(4-(trifluoromethyl)phenoxy)propyl)-3-(pyrimidin-5-yl)guanidine]
subject's pain [1]: alleviated
tumor growth [2]: inhibited
tumor size [2]: reduced
ability to inhibit androgen receptor reporter activity [3]: active
binding to Sigma1 receptor [4]: nanomolar range
